Assay results as given in PubChem BioAssay (NCI).
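In this assay, cells in 96-well plates receive the compound at five concentrations for 48 hours. Endpoints are linearly interpolated between the surrounding concentrations. Here, GI50 denotes the concentration required for 50% inhibition of growth. TGI is the concentration that stops growth completely.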

Legend:
Test in all cases: inhibition of tumour cell growth, NCI panel, 48 h; in the data active = GI50 below about 0.43 µM; inactive = the rest
COLO 205 colon = tested on: COLO 205 colon
HCC-2998 colon = tested on: HCC-2998 colon
HCT-116 colon = tested on: HCT-116 colon
EKVX NSCLC = tested on: EKVX NSCLC
MDA-MB-435 = tested on: MDA-MB-435
OVCAR-3 ovarian = tested on: OVCAR-3 ovarian
SF-539 CNS = tested on: SF-539 CNS
HL-60(TB) leukemia = tested on: HL-60(TB) leukemia
RXF 393 renal = tested on: RXF 393 renal
HCT-15 colon = tested on: HCT-15 colon
NCI-H522 lung = tested on: NCI-H522 lung
SR leukemia = tested on: SR leukemia
OVCAR-4 ovarian = tested on: OVCAR-4 ovarian
KM12 colon = tested on: KM12 colon
CAKI-1 renal = tested on: CAKI-1 renal
NCI/ADR-RES ovarian = tested on: NCI/ADR-RES ovarian
TK-10 renal = tested on: TK-10 renal
UO-31 renal = tested on: UO-31 renal
CCRF-CEM leukemia = tested on: CCRF-CEM leukemia
MDA-MB-231 breast = tested on: MDA-MB-231 breast
A549 NSCLC = tested on: A549 NSCLC
U251 CNS = tested on: U251 CNS
HOP-92 NSCLC = tested on: HOP-92 NSCLC
ACHN renal = tested on: ACHN renal
SK-OV-3 ovarian = tested on: SK-OV-3 ovarian
SF-295 CNS = tested on: SF-295 CNS
HT29 colon = tested on: HT29 colon
PC-3 prostate = tested on: PC-3 prostate
T-47D breast = tested on: T-47D breast
SW-620 colon = tested on: SW-620 colon
MOLT-4 leukemia = tested on: MOLT-4 leukemia
UACC-62 melanoma = tested on: UACC-62 melanoma
SNB-75 CNS = tested on: SNB-75 CNS
NCI-H460 lung = tested on: NCI-H460 lung
MALME-3M melanoma = tested on: MALME-3M melanoma
SK-MEL-28 melanoma = tested on: SK-MEL-28 melanoma
BT-549 breast = tested on: BT-549 breast
K-562 leukemia = tested on: K-562 leukemia
DU-145 prostate = tested on: DU-145 prostate
M14 melanoma = tested on: M14 melanoma
IGROV1 ovarian = tested on: IGROV1 ovarian
NCI-H23 lung = tested on: NCI-H23 lung
OVCAR-8 ovarian = tested on: OVCAR-8 ovarian
HS 578T breast = tested on: HS 578T breast
SF-268 CNS = tested on: SF-268 CNS
SK-MEL-2 melanoma = tested on: SK-MEL-2 melanoma
SK-MEL-5 melanoma = tested on: SK-MEL-5 melanoma
SN12C renal = tested on: SN12C renal
OVCAR-5 ovarian = tested on: OVCAR-5 ovarian
A498 renal = tested on: A498 renal
LOX IMVI melanoma = tested on: LOX IMVI melanoma
NCI-H226 lung = tested on: NCI-H226 lung
SNB-19 CNS = tested on: SNB-19 CNS
RPMI-8226 leukemia = tested on: RPMI-8226 leukemia
HOP-62 NSCLC = tested on: HOP-62 NSCLC
MCF7 breast = tested on: MCF7 breast
786-0 renal = tested on: 786-0 renal

Cc1ccc(Cl)cc1-c1nc(N)nc(Nc2ccc(Br)cc2)n1
> 56500 nM: TGI (DU-145 prostate)
> 29000 nM: TGI (SF-539 CNS)
254 nM: TGI (COLO 205 colon)
inactive: GI50 (EKVX NSCLC) 667 nM | GI50 (CAKI-1 renal) 19200 nM | GI50 (TK-10 renal) 3290 nM | GI50 (HOP-92 NSCLC) 2280 nM | GI50 (T-47D breast) 22600 nM | GI50 (NCI-H226 lung) 1740 nM
active: GI50 (COLO 205 colon) 45.4 nM | GI50 (HCC-2998 colon) 160 nM | GI50 (HCT-116 colon) 43.5 nM | GI50 (MDA-MB-435) 22.2 nM | GI50 (OVCAR-3 ovarian) 31.7 nM | GI50 (SF-539 CNS) 40.6 nM | GI50 (HL-60(TB) leukemia) 30.5 nM | GI50 (RXF 393 renal) 30.9 nM | GI50 (HCT-15 colon) 53.5 nM | GI50 (NCI-H522 lung) 33.2 nM | GI50 (SR leukemia) 36.1 nM | GI50 (OVCAR-4 ovarian) 274 nM | GI50 (KM12 colon) 50.3 nM | GI50 (NCI/ADR-RES ovarian) 34.7 nM | GI50 (UO-31 renal) 73.3 nM | GI50 (CCRF-CEM leukemia) 44.4 nM | GI50 (MDA-MB-231 breast) 139 nM | GI50 (A549 NSCLC) 66.3 nM | GI50 (U251 CNS) 46.1 nM | GI50 (ACHN renal) 91.1 nM | GI50 (SK-OV-3 ovarian) 51.7 nM | GI50 (SF-295 CNS) 41 nM | GI50 (HT29 colon) 36.5 nM | GI50 (PC-3 prostate) 53.8 nM | GI50 (SW-620 colon) 40.8 nM | GI50 (MOLT-4 leukemia) 88.3 nM | GI50 (UACC-62 melanoma) 59.4 nM | GI50 (SNB-75 CNS) 29 nM | GI50 (NCI-H460 lung) 38.5 nM | GI50 (MALME-3M melanoma) 70.3 nM | GI50 (SK-MEL-28 melanoma) 126 nM | GI50 (BT-549 breast) 58.1 nM | GI50 (K-562 leukemia) 42.2 nM | GI50 (DU-145 prostate) 69 nM | GI50 (M14 melanoma) 41.4 nM | GI50 (IGROV1 ovarian) 150 nM | GI50 (NCI-H23 lung) 73.9 nM | GI50 (OVCAR-8 ovarian) 74.5 nM | GI50 (HS 578T breast) 45.5 nM | GI50 (SK-MEL-2 melanoma) 69.2 nM | GI50 (SK-MEL-5 melanoma) 41.1 nM | GI50 (SN12C renal) 62.8 nM | GI50 (OVCAR-5 ovarian) 358 nM | GI50 (A498 renal) 32.6 nM | GI50 (LOX IMVI melanoma) 68.7 nM | GI50 (SNB-19 CNS) 83.2 nM | GI50 (RPMI-8226 leukemia) 85.1 nM | GI50 (HOP-62 NSCLC) 72.3 nM | GI50 (MCF7 breast) 45.6 nM | GI50 (786-0 renal) 59.6 nM
> 48500 nM: TGI (HS 578T breast)
208 nM: TGI (NCI/ADR-RES ovarian)
21000 nM: TGI (SK-OV-3 ovarian)
2470 nM: TGI (A498 renal)
59.8 nM: TGI (MDA-MB-435)
8720 nM: TGI (U251 CNS)
> 22100 nM: TGI (MOLT-4 leukemia)
> 100000 nM: TGI (HCT-116 colon) | TGI (EKVX NSCLC) | TGI (HCT-15 colon) | TGI (SR leukemia) | TGI (OVCAR-4 ovarian) | TGI (KM12 colon) | TGI (CAKI-1 renal) | TGI (TK-10 renal) | TGI (UO-31 renal) | TGI (MDA-MB-231 breast) | TGI (A549 NSCLC) | TGI (HOP-92 NSCLC) | TGI (ACHN renal) | TGI (SF-295 CNS) | TGI (PC-3 prostate) | TGI (T-47D breast) | TGI (SW-620 colon) | TGI (UACC-62 melanoma) | TGI (SNB-75 CNS) | TGI (MALME-3M melanoma) | TGI (SK-MEL-28 melanoma) | TGI (K-562 leukemia) | TGI (M14 melanoma) | TGI (IGROV1 ovarian) | TGI (OVCAR-8 ovarian) | TGI (SF-268 CNS) | TGI (SK-MEL-2 melanoma) | TGI (SK-MEL-5 melanoma) | TGI (SN12C renal) | TGI (OVCAR-5 ovarian) | TGI (LOX IMVI melanoma) | TGI (SNB-19 CNS) | TGI (RPMI-8226 leukemia) | TGI (HOP-62 NSCLC) | TGI (MCF7 breast) | TGI (786-0 renal)
3990 nM: TGI (RXF 393 renal)
> 38700 nM: TGI (NCI-H460 lung)
